Key:
[1] = target: T1, Serine/threonine-protein kinase TAO3 (Homo sapiens) (UniProt Q9H2K8); assay: Selectivity interaction (KinomeScan (DiscoverX)) EUB0000706a TAOK3; details: at 1 µM
T1 sequence (whole entry): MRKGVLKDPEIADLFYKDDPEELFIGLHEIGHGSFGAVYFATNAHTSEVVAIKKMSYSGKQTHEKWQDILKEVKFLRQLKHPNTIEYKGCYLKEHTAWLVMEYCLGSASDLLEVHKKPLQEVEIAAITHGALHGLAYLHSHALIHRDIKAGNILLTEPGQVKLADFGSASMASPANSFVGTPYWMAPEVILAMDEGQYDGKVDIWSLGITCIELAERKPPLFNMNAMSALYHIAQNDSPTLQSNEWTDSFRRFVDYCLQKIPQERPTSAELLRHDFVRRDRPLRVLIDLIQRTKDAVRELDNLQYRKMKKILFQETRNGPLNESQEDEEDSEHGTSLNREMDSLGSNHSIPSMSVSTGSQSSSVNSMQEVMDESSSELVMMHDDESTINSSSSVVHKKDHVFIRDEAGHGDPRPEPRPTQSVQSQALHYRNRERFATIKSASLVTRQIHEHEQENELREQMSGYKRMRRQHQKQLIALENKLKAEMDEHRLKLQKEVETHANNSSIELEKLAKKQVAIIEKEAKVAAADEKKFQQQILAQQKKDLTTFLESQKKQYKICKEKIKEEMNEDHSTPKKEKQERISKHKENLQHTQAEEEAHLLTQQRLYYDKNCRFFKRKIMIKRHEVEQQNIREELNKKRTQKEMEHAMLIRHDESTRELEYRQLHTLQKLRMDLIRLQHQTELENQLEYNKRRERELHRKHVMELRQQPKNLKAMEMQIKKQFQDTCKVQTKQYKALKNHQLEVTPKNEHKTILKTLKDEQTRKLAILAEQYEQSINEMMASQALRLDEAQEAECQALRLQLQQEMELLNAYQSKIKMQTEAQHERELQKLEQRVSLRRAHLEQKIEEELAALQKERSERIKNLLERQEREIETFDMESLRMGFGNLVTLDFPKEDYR

[2] = target: T2, Tyrosine-protein kinase JAK3 (Homo sapiens) (UniProt P52333); assay: Selectivity interaction (KinomeScan (DiscoverX)) EUB0000706a JAK3; details: at 1 µM
T2 sequence (whole entry): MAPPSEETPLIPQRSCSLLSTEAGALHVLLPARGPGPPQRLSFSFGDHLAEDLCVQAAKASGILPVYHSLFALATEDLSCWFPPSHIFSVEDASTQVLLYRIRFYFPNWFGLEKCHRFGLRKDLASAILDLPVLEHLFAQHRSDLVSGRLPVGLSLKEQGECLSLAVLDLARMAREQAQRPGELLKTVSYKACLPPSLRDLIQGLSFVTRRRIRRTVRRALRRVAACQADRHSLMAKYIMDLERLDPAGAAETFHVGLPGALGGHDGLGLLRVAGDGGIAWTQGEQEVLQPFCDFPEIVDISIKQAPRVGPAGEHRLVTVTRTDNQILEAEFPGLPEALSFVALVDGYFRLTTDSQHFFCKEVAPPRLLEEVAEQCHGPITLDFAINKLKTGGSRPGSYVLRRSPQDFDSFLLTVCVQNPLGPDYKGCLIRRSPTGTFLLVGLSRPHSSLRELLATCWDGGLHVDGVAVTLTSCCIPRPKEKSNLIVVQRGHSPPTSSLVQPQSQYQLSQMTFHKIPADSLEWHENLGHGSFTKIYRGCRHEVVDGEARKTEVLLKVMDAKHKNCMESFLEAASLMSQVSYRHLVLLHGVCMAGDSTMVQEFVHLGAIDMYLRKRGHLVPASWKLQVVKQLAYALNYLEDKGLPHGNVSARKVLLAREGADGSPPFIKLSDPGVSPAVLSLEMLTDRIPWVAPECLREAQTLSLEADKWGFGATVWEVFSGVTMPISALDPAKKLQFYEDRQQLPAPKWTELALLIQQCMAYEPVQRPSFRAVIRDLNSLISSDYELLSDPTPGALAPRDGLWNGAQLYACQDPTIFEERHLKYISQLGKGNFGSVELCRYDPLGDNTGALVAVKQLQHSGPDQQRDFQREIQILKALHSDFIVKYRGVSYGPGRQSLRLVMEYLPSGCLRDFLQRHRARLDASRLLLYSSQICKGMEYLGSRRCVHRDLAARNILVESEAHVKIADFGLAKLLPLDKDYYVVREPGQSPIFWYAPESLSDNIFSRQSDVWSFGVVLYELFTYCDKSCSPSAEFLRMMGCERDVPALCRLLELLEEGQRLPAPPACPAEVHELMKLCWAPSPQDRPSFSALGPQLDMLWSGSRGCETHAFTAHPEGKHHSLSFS

[3] = target: T3, Phosphatidylinositol 4,5-bisphosphate 3-kinase catalytic subunit alpha isoform (Homo sapiens, UniProt P42336); assay: Selectivity interaction (KinomeScan (DiscoverX)) EUB0000706a PIK3CA; details: at 1 µM
[4] = target: T4, Tyrosine-protein kinase ABL1 (Homo sapiens, UniProt P00519); assay: Selectivity interaction (KinomeScan (DiscoverX)) EUB0000744a ABL1; details: at 100 nM
[5] = target: T3, Phosphatidylinositol 4,5-bisphosphate 3-kinase catalytic subunit alpha isoform; assay: Selectivity interaction (KinomeScan (DiscoverX)) EUB0000744a PIK3CA; details: at 100 nM
[6] = target: Ribosomal protein S6 kinase beta-1 (Homo sapiens) (UniProt P23443); assay: Selectivity interaction (KinomeScan (DiscoverX)) EUB0000274bCl RPS6KB1; details: at 1 µM
[7] = system: Receptor-type tyrosine-protein kinase FLT3 (Homo sapiens), P36888 [K663Q]; assay: Selectivity interaction (KinomeScan (DiscoverX)) EUB0000274bCl FLT3; details: at 1 µM
[8] = target: Dual specificity tyrosine-phosphorylation-regulated kinase 1A (Homo sapiens, UniProt Q13627); assay: Selectivity interaction (KinomeScan (DiscoverX)) EUB0000313b DYRK1A; details: at 1 µM
[9] = target: Dual specificity tyrosine-phosphorylation-regulated kinase 1B (Homo sapiens, UniProt Q9Y463); assay: Selectivity interaction (KinomeScan (DiscoverX)) EUB0000313b DYRK1B; details: at 1 µM
[10] = target: T4, Tyrosine-protein kinase ABL1; assay: Selectivity interaction (KiNativ profiling (A375 live cells treatment assays)) EUB0000238b ABL1; details: at 1 µM
[11] = target: Tyrosine-protein kinase ABL2 (Homo sapiens) (UniProt P42684); assay: Selectivity interaction (KiNativ profiling (A375 live cells treatment assays)) EUB0000238b ABL2; details: at 1 µM
[12] = target: T5, Gamma-aminobutyric acid receptor subunit alpha-1 (Homo sapiens) (UniProt P14867); assay: Selectivity interaction (GPCR panel (PDSP screen)) EUB0000546a GABRA1; details: at 10 µM
T5 sequence (whole entry): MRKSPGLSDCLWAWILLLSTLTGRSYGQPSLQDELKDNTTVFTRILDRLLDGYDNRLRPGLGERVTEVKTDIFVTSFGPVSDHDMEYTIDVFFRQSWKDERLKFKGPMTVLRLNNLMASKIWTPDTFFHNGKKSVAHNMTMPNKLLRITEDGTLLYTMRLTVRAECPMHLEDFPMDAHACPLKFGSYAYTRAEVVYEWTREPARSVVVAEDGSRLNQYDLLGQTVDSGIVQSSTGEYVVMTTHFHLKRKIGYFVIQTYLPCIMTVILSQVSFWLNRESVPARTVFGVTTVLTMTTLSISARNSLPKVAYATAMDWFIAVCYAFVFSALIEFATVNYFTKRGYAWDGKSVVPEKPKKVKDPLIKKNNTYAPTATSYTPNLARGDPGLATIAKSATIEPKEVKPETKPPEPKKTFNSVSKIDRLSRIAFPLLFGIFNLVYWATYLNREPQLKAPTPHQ

[13] = target: Muscarinic acetylcholine receptor M3 (Homo sapiens) (UniProt P20309); assay: Selectivity interaction (GPCR panel (PDSP screen)) EUB0000546a CHRM3; details: at 10 µM
Muscarinic acetylcholine receptor M3 (Homo sapiens), sequence (P20309 whole entry, looked up): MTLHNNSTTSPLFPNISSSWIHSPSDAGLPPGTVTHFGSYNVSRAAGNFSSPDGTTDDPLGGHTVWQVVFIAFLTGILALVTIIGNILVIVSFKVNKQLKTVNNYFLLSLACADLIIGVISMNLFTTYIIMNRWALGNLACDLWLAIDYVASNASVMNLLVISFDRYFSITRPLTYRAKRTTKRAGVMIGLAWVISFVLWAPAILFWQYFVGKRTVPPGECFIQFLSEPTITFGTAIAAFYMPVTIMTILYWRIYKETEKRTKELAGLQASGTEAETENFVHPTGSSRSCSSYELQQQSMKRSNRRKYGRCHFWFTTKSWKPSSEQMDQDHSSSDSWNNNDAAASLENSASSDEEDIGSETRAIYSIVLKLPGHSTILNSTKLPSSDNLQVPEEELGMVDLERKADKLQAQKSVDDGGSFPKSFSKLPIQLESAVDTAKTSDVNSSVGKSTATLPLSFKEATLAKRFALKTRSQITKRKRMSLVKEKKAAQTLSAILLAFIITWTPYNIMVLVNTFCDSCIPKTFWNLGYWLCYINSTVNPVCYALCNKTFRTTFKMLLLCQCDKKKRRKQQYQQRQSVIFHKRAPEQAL

T4 sequence (P00519 whole entry, canonical isoform): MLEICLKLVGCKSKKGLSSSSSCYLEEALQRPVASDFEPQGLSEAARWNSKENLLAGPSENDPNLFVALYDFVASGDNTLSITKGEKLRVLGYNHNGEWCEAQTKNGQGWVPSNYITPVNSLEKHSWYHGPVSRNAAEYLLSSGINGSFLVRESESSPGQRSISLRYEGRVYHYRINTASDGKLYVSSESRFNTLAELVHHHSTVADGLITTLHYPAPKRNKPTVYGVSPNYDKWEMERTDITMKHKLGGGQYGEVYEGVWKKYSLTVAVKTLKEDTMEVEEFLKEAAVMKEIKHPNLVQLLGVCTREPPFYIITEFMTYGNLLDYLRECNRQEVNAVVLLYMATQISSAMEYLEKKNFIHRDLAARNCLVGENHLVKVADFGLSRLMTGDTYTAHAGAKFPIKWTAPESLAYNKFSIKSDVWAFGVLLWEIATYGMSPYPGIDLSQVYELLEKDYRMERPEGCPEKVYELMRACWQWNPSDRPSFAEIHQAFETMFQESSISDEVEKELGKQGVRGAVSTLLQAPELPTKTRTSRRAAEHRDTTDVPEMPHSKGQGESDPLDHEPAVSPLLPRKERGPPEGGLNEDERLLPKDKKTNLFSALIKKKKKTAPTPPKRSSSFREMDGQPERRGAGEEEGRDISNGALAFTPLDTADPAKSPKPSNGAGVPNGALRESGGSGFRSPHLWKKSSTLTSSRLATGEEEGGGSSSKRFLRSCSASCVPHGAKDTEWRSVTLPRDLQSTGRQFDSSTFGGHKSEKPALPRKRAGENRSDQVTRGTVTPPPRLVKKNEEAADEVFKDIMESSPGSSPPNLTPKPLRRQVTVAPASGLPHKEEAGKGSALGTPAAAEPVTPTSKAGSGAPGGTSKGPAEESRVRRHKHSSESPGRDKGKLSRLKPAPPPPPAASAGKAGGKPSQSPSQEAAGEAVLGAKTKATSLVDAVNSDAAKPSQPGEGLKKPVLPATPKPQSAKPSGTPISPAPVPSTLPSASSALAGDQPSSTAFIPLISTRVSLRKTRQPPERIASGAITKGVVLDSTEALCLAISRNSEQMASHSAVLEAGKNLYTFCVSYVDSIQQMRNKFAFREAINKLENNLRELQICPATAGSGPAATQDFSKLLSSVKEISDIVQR
T3 sequence (P42336 whole entry, canonical isoform): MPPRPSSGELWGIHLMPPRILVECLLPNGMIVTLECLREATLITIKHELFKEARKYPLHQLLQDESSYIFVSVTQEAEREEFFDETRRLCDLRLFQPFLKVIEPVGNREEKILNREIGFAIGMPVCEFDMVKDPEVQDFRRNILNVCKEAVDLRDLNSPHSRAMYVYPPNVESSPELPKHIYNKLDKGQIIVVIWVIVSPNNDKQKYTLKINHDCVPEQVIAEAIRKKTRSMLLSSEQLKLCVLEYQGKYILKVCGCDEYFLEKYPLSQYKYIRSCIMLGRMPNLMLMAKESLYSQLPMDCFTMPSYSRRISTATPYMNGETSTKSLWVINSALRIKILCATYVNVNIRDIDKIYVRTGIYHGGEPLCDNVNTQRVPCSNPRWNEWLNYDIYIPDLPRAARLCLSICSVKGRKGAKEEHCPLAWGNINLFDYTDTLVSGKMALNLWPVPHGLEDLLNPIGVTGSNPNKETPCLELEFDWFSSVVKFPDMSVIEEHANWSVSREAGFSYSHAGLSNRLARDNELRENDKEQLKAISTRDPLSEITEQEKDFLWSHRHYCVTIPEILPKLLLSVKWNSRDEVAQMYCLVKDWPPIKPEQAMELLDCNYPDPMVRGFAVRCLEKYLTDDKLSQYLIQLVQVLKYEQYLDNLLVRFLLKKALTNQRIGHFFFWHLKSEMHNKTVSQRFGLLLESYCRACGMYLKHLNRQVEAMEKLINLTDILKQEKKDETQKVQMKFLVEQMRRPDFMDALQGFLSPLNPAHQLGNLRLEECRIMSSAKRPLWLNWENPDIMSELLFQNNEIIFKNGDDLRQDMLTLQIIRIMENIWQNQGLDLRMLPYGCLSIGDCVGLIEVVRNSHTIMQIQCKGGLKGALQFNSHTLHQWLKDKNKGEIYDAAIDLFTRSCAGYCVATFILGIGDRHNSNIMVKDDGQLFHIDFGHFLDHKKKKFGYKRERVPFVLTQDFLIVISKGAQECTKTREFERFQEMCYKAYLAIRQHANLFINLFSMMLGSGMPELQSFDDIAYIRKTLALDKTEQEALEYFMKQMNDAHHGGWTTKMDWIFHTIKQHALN
Dual specificity tyrosine-phosphorylation-regulated kinase 1B, sequence (Q9Y463 whole entry, looked up): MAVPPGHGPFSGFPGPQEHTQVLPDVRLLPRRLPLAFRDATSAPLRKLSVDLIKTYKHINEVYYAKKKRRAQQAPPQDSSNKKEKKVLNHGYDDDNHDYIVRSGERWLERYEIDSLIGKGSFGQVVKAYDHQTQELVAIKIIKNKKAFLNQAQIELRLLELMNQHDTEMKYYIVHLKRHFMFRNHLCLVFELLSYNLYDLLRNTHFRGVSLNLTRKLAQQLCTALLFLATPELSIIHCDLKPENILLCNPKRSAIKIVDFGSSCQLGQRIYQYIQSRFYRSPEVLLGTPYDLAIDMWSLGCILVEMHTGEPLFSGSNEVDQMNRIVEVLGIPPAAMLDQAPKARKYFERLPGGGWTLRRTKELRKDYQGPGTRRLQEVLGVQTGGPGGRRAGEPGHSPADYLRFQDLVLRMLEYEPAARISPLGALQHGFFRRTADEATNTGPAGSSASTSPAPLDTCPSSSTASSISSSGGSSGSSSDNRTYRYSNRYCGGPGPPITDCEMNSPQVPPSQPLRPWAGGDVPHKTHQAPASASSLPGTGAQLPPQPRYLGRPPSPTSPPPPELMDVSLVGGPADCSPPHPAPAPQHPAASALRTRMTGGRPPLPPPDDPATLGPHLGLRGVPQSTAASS
Ribosomal protein S6 kinase beta-1 (Homo sapiens), sequence (P23443 whole entry, looked up): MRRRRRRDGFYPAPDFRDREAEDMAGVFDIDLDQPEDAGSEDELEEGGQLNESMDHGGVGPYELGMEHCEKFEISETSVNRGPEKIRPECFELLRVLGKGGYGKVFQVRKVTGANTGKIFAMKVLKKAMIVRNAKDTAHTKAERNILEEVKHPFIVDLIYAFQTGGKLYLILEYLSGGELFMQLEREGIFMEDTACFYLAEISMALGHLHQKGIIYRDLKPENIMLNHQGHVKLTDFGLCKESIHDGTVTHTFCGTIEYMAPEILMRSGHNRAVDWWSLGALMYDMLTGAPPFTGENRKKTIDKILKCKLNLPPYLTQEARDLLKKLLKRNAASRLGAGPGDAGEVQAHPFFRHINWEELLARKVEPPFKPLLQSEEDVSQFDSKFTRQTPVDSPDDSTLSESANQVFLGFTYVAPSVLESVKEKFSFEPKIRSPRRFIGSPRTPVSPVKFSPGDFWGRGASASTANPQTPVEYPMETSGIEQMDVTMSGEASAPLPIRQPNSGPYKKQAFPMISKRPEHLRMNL

**Q.** Which % of control [1] does the source give for `C[C@@H]1CN(c2cc(-c3nn(C)c4ccc(OC5(C)CC5)cc34)ncn2)C[C@H](C)O1` here?
**A.** The % of control was 35%.

**Q.** And the % of control [2]?
**A.** Its % of control is 12%.

**Q.** What about the % of control [3] of the same molecule?
**A.** Its % of control is 32%.

**Q.** For `CC(C)CC(=O)N1CCc2nc(-c3ccc(Br)cc3)nc(N(C)Cc3ccccc3)c2C1`, which % of control [4] is on record?
**A.** The % of control was 53%.

**Q.** What about the % of control [5] of the same molecule?
**A.** The % of control was 53%.

**Q.** For `O=C(O)c1cc(-c2ccc(C3CCNCC3)cc2)c2ccc(-c3ccc(C(F)(F)F)cc3)cc2c1`, which % of control [6] is on record?
**A.** Its % of control is 34%.

**Q.** What about the % of control [7] of the same molecule?
**A.** The % of control was 30%.

**Q.** Which % of control [8] does the source give for `CC(C)(O)c1cncc(-c2nc3ccc(F)cc3n2C2CC2)c1` here?
**A.** The % of control was 48%.

**Q.** And the % of control [9]?
**A.** The % of control was 44%.

**Q.** Which results are given for `CNc1cc(Oc2cc(C(=O)Nc3cc(N4CCN(C)CC4)cc(C(F)(F)F)c3)ccc2C)ncn1`?
**A.** % of inhibition [10]: 49%; % of inhibition [11]: 49%

**Q.** `C[C@H](c1ccc(F)cc1)N(Cc1ccc(Cl)c(C(=O)O)c1)C(=O)c1cnc2ccccc2c1` was tested. Which % of inhibition [12] did it give?
**A.** Its % of inhibition is 28%.

**Q.** What about the % of inhibition [13] of the same molecule?
**A.** Its % of inhibition is 39%.

Reference: ChEMBL document CHEMBL5212743, “Selectivity Literature for EUbOPEN Chemogenomics Library wave 3” (2023)
